Measured values: patent publication US20050197350A1, “Novel quinoline, tetrahydroquinazoline, and pyrimidine derivatives and methods of treatment related to the use thereof” (TAISHO PHARMACEUTICAL CO., LTD., priority 2003, published 2005)
Where two headings read alike, the source gives them in different places.

Test system: MCH receptors
Assay: MCH receptor activity class (method not given)
[1] = class by percent of control at 10^-7 M or IC50
[2] = class by percent of control at 10^−7 M or IC50
[3] = MCH receptor activity class 1-3 (percent of control at 10^-7 M or IC50)
[4] = MCH receptor, class by percent of control at 10^-7 M or IC50

Structure (SMILES)	class [1]	other results
CN(C)c1nc(N[C@H]2CC[C@@H](NC(=O)Nc3cccc(C(F)(F)F)c3)CC2)nc2c1CCCC2 [compound 1838]	3 (Class 3 The value of percent of control at 10^−7 M was more than 60% or the value of IC50 was more than 200 nM.)	–
CCOc1ccccc1NC(=O)N[C@H]1CC[C@@H](Nc2nc3c(c(N(C)C)n2)CCCC3)CC1 [compound 1712]	2 (Class 2: The value of percent of control at 10^−7 M was from 40% to 60% or the value of IC′50 was from 50 nM to 200 nM.)	–
CN(C)c1ccnc(N[C@H]2CC[C@@H](NC(=O)COc3ccccc3[N+](=O)[O-])CC2)n1 [compound 331]	3 (Class 3 The value of percent of control at 10^−7 M was more than 60% or the value of IC50 was more than 200 nM.)	–
CCCCc1ccc(NC(=O)N[C@H]2CC[C@@H](Nc3nccc(N(C)C)n3)CC2)c(C)c1 [compound 2255]	3 (Class 3 The value of percent of control at 10^−7 M was more than 60% or the value of IC50 was more than 200 nM.)	–
Cc1cnc(N[C@H]2CC[C@@H](CNC(=O)c3ccc(OC(F)(F)F)cc3)CC2)nc1N(C)C [compound 2700, N-[(cis-4-{[4-(dimethylamino)-5-methylpyrimidin-2-yl]amino}cyclohexyl)methyl]-4-(trifluoromethoxy)benzamide]	–	class [2]: 2 (Class 2: The value of percent of control at 10^−7 M was from 40% to 60% or the value of IC′50 was from 50 nM to 200 nM.)
CN(C)c1cc(N[C@H]2CC[C@@H](CNC(=O)Nc3c(Br)cc(F)cc3Br)CC2)nc2ccccc12 [compound 2398]	–	class [3]: 3 (Class 3 The value of percent of control at 10^−7 M was more than 60% or the value of IC50 was more than 200 nM.)
Cc1nc(N[C@H]2CC[C@@H](NC(=O)c3ccc(C(F)(F)F)cc3)CC2)nc(N(C)C)c1C [compound 2850, N-(cis-4-{[4-(dimethylamino)-5,6-dimethylpyrimidin-2-yl]amino}cyclohexyl)-4-(trifluoromethyl)benzamide]	–	class [2]: 1 (Class 1: The value of percent of control at 10^−7 M was less than 40% or the value of IC50 was less than 50 nM.)
CN(C)c1ccnc(N[C@H]2CC[C@@H](NC(=O)C3CCCCC3)CC2)n1 [compound 315]	3 (Class 3 The value of percent of control at 10^−7 M was more than 60% or the value of IC50 was more than 200 nM.)	–
CCCCc1ccc(NC(=O)N[C@H]2CC[C@@H](Nc3nc4c(c(N(C)C)n3)CCCC4)CC2)c(C)c1 [compound 1735]	3 (Class 3 The value of percent of control at 10^−7 M was more than 60% or the value of IC50 was more than 200 nM.)	–
C#CCNC(=S)N[C@H]1CC[C@@H](Nc2nc3c(c(N(C)C)n2)CCCC3)CC1 [compound 2056]	–	class [4]: 3 (Class 3 The value of percent of control at 10^−7 M was more than 60% or the value of IC50 was more than 200 nM.)
Cc1cnc(N[C@H]2CC[C@@H](C(=O)N[C@H]3C[C@@H]3c3ccccc3)CC2)nc1N(C)C [compound 2790, cis-4-{[4-(dimethylamino)-5-methylpyrimidin-2-yl]amino}-N-[(1S,2R)-2-phenylcyclopropyl]cyclohexanecarboxamide]	–	class [2]: 1 (Class 1: The value of percent of control at 10^−7 M was less than 40% or the value of IC50 was less than 50 nM.)
CN(C)c1ccnc(N[C@H]2CC[C@@H](NC(=O)/C=C/c3ccccc3[N+](=O)[O-])CC2)n1 [compound 866]	3 (Class 3 The value of percent of control at 10^−7 M was more than 60% or the value of IC50 was more than 200 nM.)	–
CN(C)c1ccnc(N[C@H]2CC[C@@H](NC(=O)c3cn(Cc4ccccc4)c4ccccc34)CC2)n1 [compound 830, 1-benzyl-N-(cis-4-{[4-(dimethylamino)pyrimidin-2-yl]amino}cyclohexyl)-1H-indole-3-carboxamide]	2 (Class 2: The value of percent of control at 10^−7 M was from 40% to 60% or the value of IC′50 was from 50 nM to 200 nM.)	–
CC(Oc1ccccc1)C(=O)NC[C@H]1CC[C@@H](Nc2cc(N(C)C)c3ccccc3n2)CC1 (relative stereo) [compound 176, N-[(cis-4-{[4-(dimethylamino)quinolin-2-yl]amino}cyclohexyl)methyl]-2-phenoxypropanamide]	–	class [4]: 3 (Class 3 The value of percent of control at 10^−7 M was more than 60% or the value of IC50 was more than 200 nM.)
Cc1cnc(N[C@H]2CC[C@@H](NC(=O)c3ccc(F)cc3F)CC2)nc1N(C)C [compound 2901, N-(cis-4-{[4-(dimethylamino)-5-methylpyrimidin-2-yl]amino}cyclohexyl)-2,4-difluorobenzamide]	–	class [2]: 1 (Class 1: The value of percent of control at 10^−7 M was less than 40% or the value of IC50 was less than 50 nM.)
Cc1ccc(NC(=O)NC[C@H]2CC[C@@H](Nc3nc4c(c(N(C)C)n3)CCCC4)CC2)cc1 [compound 2487]	3 (Class 3 The value of percent of control at 10^−7 M was more than 60% or the value of IC50 was more than 200 nM.)	–
CCSC(C(=O)N[C@H]1CC[C@@H](Nc2nccc(N(C)C)n2)CC1)(c1ccccc1)c1ccccc1 [compound 874, N-(cis-4-{[4-(dimethylamino)pyrimidin-2-yl]amino}cyclohexyl)-2-(ethylthio)-2,2-diphenylacetamide]	1 (Class 1: The value of percent of control at 10^−7 M was less than 40% or the value of IC50 was less than 50 nM.)	–
COc1ccc2c(c1)C(CC(=O)N[C@H]1CC[C@@H](Nc3nc4c(c(N(C)C)n3)CCCC4)CC1)CC2=O (relative stereo) [compound 988]	–	class (activity class per percent of control at 10^-7 M or IC50): 3 (Class 3 The value of percent of control at 10^−7 M was more than 60% or the value of IC50 was more than 200 nM.)

Structure (SMILES)	class [1]	other results
COc1ccc(NC(=S)N[C@H]2CC[C@@H](Nc3nc4c(c(N(C)C)n3)CCCC4)CC2)c(OC)c1 [compound 1740, N-(2,4-dimethoxyphenyl)-N′-(cis-4-{[4-(dimethylamino)-5,6,7,8-tetrahydroquinazolin-2-yl]amino}cyclohexyl)thiourea]	1 (Class 1: The value of percent of control at 10^−7 M was less than 40% or the value of IC50 was less than 50 nM.)	–
CN(C)c1nc(N[C@H]2CC[C@@H](NC(=S)Nc3ccc(Oc4ccccc4)cc3)CC2)nc2c1CCCC2 [compound 2053]	–	class [4]: 3 (Class 3 The value of percent of control at 10^−7 M was more than 60% or the value of IC50 was more than 200 nM.)
CN(C)c1ccc(CNC[C@H]2CC[C@@H](Nc3nc4c(c(N(C)C)n3)CCCC4)CC2)cc1 [compound 1393]	3 (Class 3 The value of percent of control at 10^−7 M was more than 60% or the value of IC50 was more than 200 nM.)	–
CN(C)c1ccnc(N[C@H]2CC[C@@H](CNC(=O)c3ccc([N+](=O)[O-])s3)CC2)n1 [compound 939]	3 (Class 3 The value of percent of control at 10^−7 M was more than 60% or the value of IC50 was more than 200 nM.)	–
Cc1cc(N(C)C)nc(N[C@H]2CC[C@@H](C(=O)NCc3cccc(Cl)c3)CC2)n1 [Example 2577, cis-N-(3-chlorobenzyl)-4-{[4-(dimethylamino)-6-methylpyrimidin-2-yl]amino}cyclohexanecarboxamide]	–	class: 1
Cc1cccc(C)c1NC(=O)NC[C@H]1CC[C@@H](Nc2nccc(N(C)C)n2)CC1 [compound 2406, N-[(cis-4-{[4-(dimethylamino)pyrimidin-2-yl]amino}cyclohexyl)methyl]-N′-(2,6-dimethylphenyl)urea]	–	class [3]: 1 (Class 1: The value of percent of control at 10^−7 M was less than 40% or the value of IC50 was less than 50 nM.)
CN(C)c1ccnc(N[C@H]2CC[C@@H](NC(=S)Nc3c(Cl)cc(Cl)cc3Cl)CC2)n1 [compound 2319]	–	class [3]: 3 (Class 3 The value of percent of control at 10^−7 M was more than 60% or the value of IC50 was more than 200 nM.)
Cc1ccc(C(=O)N[C@H]2CC[C@@H](Nc3nc(C)c(C)c(N(C)C)n3)CC2)cc1 [compound 2845, N-(cis-4-{[4-(dimethylamino)-5,6-dimethylpyrimidin-2-yl]amino}cyclohexyl)-4-methylbenzamide]	–	class [2]: 1 (Class 1: The value of percent of control at 10^−7 M was less than 40% or the value of IC50 was less than 50 nM.)
CN(C)c1nc(N[C@H]2CC[C@@H](NC(=S)Nc3ccc(Oc4ccccc4)nc3)CC2)nc2c1CCCC2 [compound 2088]	3 (Class 3 The value of percent of control at 10^−7 M was more than 60% or the value of IC50 was more than 200 nM.)	–
COc1cc(NC(=O)N[C@H]2CC[C@@H](Nc3nc4c(c(N(C)C)n3)CCCC4)CC2)cc(OC)c1 [compound 1868]	3 (Class 3 The value of percent of control at 10^−7 M was more than 60% or the value of IC50 was more than 200 nM.)	–
Cc1cnc(N[C@H]2CC[C@@H](NC(=O)CN(C)c3ccc(Cl)cc3)CC2)nc1N(C)C [compound 2945]	–	class [2]: 1 (Class 1: The value of percent of control at 10^−7 M was less than 40% or the value of IC50 was less than 50 nM.)
CN(C)c1cc(N[C@H]2CC[C@@H](NC(=O)C3CC(=O)c4ccccc43)CC2)nc2ccccc12 (relative stereo) [compound 684]	3 (Class 3 The value of percent of control at 10^−7 M was more than 60% or the value of IC50 was more than 200 nM.)	–
CCCCNC(=O)N[C@H]1CC[C@@H](Nc2nccc(N(C)C)n2)CC1 [compound 2215]	3 (Class 3 The value of percent of control at 10^−7 M was more than 60% or the value of IC50 was more than 200 nM.)	–
CN(C)c1ccnc(N[C@H]2CC[C@@H](NC(=O)c3ccc([N+](=O)[O-])cc3)CC2)n1 [compound 909, N-(cis-4-{[4-(dimethylamino)pyrimidin-2-yl]amino}cyclohexyl)-4-nitrobenzamide]	2 (Class 2: The value of percent of control at 10^−7 M was from 40% to 60% or the value of IC′50 was from 50 nM to 200 nM.)	–
Cc1cc(F)ccc1NC(=S)N[C@H]1CC[C@@H](Nc2nccc(N(C)C)n2)CC1 [compound 2340]	–	class [3]: 3 (Class 3 The value of percent of control at 10^−7 M was more than 60% or the value of IC50 was more than 200 nM.)
CN(C)c1cc(N[C@H]2CC[C@@H](NC(=O)OCC(Cl)(Cl)Cl)CC2)nc2ccccc12 [compound 1558]	–	class (activity class 1-3: percent of control at 10^-7 M or IC50): 3 (Class 3 The value of percent of control at 10^−7 M was more than 60% or the value of IC50 was more than 200 nM.)
COc1cc(Br)cc(CNC[C@H]2CC[C@@H](Nc3nccc(N(C)C)n3)CC2)c1O [compound 1250]	1 (Class 1: The value of percent of control at 10^−7 M was less than 40% or the value of IC50 was less than 50 nM.)	–
